Source: paper PMC12655527, “An Investigational Study on the Role of ADME Agents’ Genetic Variation on DD217 Pharmacokinetics and Safety Profile” (Pharmaceuticals, 2025)
Where two headings read alike, the source gives them in different places.

Test: Pharmacokinetic parameters (Tmax, AUClast, Cmax) of DD217 in phase II trial patients
Assay type: in vivo, human (patients undergoing knee replacement surgery)
Conditions: human, plasma
Excerpt: The design, eligibility criteria, and outcomes of the phase II clinical trial evaluating the safety and tolerability of DD217 (NCT05189002, ClinicalTrials.gov) have been described previously. Briefly, this was a multicenter, double-blind, randomized, prospective phase II study designed to determine the optimal dosing regimen and to assess the safety and efficacy of DD217 for the prevention of venous thromboembolism (VTE) in patients undergoing knee replacement surgery. Patients were randomized into one of three groups: two groups received oral DD217 at doses of 40 mg or 60 mg once daily, starting on the morning of the first postoperative day, and one group received the active comparator, dalteparin sodium. The treatment duration was 14 days.
In total, data from 52 patients who underwent knee replacement surgery were included in the analysis. Of these, 34 patients received DD217 at daily doses of 40 mg (n = 16) or 60 mg (n = 18), and 18 patients received dalteparin sodium.
To characterize the pharmacokinetic profile of DD217 in our study, three parameters were assessed: Cmax, Tmax, and AUClast.

`CC(=N)N(C)c1ccc(C(=O)Nc2ccc(C)cc2C(=O)Nc2ccc(Cl)cn2)cc1.Cl` [DD217, N-(5-chloropyridin-2-yl)-5-methyl-2-[4-(N-methylacetimidamido)benzamido]benzamide hydrochloride] gave an AUC(0-t) (im, 40 mg, CYP2C9 *1/*2, *1/*3, IM (n = 6), mean ± SD, read-out: AUClast) of 33.9 ± 36.2 ng·h/mL, a Cmax (im, 40 mg, CYP2C9 *1/*2, *1/*3, IM (n = 6), mean ± SD, read-out: Cmax) of 3.72 ± 5.61 ng/mL and a Tmax (im, 40 mg, CYP2C9 *1/*2, *1/*3, IM (n = 6), mean ± SD, read-out: Tmax) of 9 ± 8.17 h. For the same compound, the AUC(0-t) (im, 40 mg, CYP2C19 *1/*2, IM (n = 1), read-out: AUClast) was 48.5 ng·h/mL, the Cmax (im, 40 mg, CYP2C19 *1/*2, IM (n = 1), read-out: Cmax) was 3.12 ng/mL and the Tmax (im, 40 mg, CYP2C19 *1/*2, IM (n = 1), read-out: Tmax) was 4 h. The AUC(0-t) (im, 40 mg, CYP3A *1/*22, *1/*3, IM (n = 4), mean ± SD, read-out: AUClast) was 49 ± 48.7 ng·h/mL, the Cmax (im, 40 mg, CYP3A *1/*22, *1/*3, IM (n = 4), mean ± SD, read-out: Cmax) was 6.63 ± 8.63 ng/mL and the Tmax (im, 40 mg, CYP3A *1/*22, *1/*3, IM (n = 4), mean ± SD, read-out: Tmax) was 6.25 ± 3.5 h. For the same compound, the AUC(0-t) (im, 60 mg, CYP2C9 *1/*2, *1/*3, IM (n = 5), mean ± SD, read-out: AUClast) was 89.8 ± 89.3 ng·h/mL, the Cmax (im, 60 mg, CYP2C9 *1/*2, *1/*3, IM (n = 5), mean ± SD, read-out: Cmax) was 9.24 ± 9.59 ng/mL and the Tmax (im, 60 mg, CYP2C9 *1/*2, *1/*3, IM (n = 5), mean ± SD, read-out: Tmax) was 3.2 ± 2.17 h. For the same compound, the AUC(0-t) (im, 60 mg, CYP2C19 *1/*2, *2/*2, *2/*17, IM + PM (n = 4), mean ± SD, read-out: AUClast) was 32.3 ± 22.5 ng·h/mL, the Cmax (im, 60 mg, CYP2C19 *1/*2, *2/*2, *2/*17, IM + PM (n = 4), mean ± SD, read-out: Cmax) was 3.64 ± 3.51 ng/mL and the Tmax (im, 60 mg, CYP2C19 *1/*2, *2/*2, *2/*17, IM + PM (n = 4), mean ± SD, read-out: Tmax) was 9.5 ± 9.98 h. For the same compound, the AUC(0-t) (im, 60 mg, CYP3A *1/*3, IM (n = 2), mean ± SD, read-out: AUClast) was 186 ± 211 ng·h/mL, the Cmax (im, 60 mg, CYP3A *1/*3, IM (n = 2), mean ± SD, read-out: Cmax) was 11.9 ± 12.7 ng/mL and the Tmax (im, 60 mg, CYP3A *1/*3, IM (n = 2), mean ± SD, read-out: Tmax) was 3.5 ± 3.54 h. The AUC(0-t) (oral, 40 mg/day, ABCB1 rs1045642 T>C, C/C (n 5), read-out: AUClast (SD)) was 17.8 ng·h/mL, the Cmax (oral, 40 mg/day, ABCB1 rs1045642 T>C, C/C (n 5), read-out: Cmax (SD)) was 2.42 ng/mL and the Tmax (oral, 40 mg/day, ABCB1 rs1045642 T>C, C/C (n 5), read-out: Tmax (SD)) was 17.2 h. It also gave an AUC(0-t) (oral, 40 mg/day, ABCB1 rs1045642 T>C, T/C (n 7), read-out: AUClast (SD)) of 63.6 ng·h/mL, a Cmax (oral, 40 mg/day, ABCB1 rs1045642 T>C, T/C (n 7), read-out: Cmax (SD)) of 8.03 ng/mL and a Tmax (oral, 40 mg/day, ABCB1 rs1045642 T>C, T/C (n 7), read-out: Tmax (SD)) of 6 h. For the same compound, the AUC(0-t) (oral, 40 mg/day, ABCB1 rs1045642 T>C, T/T (n 4), read-out: AUClast (SD)) was 35.5 ng·h/mL, the Cmax (oral, 40 mg/day, ABCB1 rs1045642 T>C, T/T (n 4), read-out: Cmax (SD)) was 4.63 ng/mL and the Tmax (oral, 40 mg/day, ABCB1 rs1045642 T>C, T/T (n 4), read-out: Tmax (SD)) was 9.5 h. For the same compound, the AUC(0-t) (oral, 40 mg/day, ABCB1 rs1128503 T>C, C/C (n 8), read-out: AUClast (SD)) was 34.6 ng·h/mL, the Cmax (oral, 40 mg/day, ABCB1 rs1128503 T>C, C/C (n 8), read-out: Cmax (SD)) was 4.84 ng/mL and the Tmax (oral, 40 mg/day, ABCB1 rs1128503 T>C, C/C (n 8), read-out: Tmax (SD)) was 12.9 h. The AUC(0-t) (oral, 40 mg/day, ABCB1 rs1128503 T>C, C/T (n 6), read-out: AUClast (SD)) was 46.4 ng·h/mL, the Cmax (oral, 40 mg/day, ABCB1 rs1128503 T>C, C/T (n 6), read-out: Cmax (SD)) was 5.24 ng/mL and the Tmax (oral, 40 mg/day, ABCB1 rs1128503 T>C, C/T (n 6), read-out: Tmax (SD)) was 9.5 h. For the same compound, the AUC(0-t) (oral, 40 mg/day, ABCB1 rs1128503 T>C, T/T (n 2), read-out: AUClast (SD)) was 60.9 ng·h/mL, the Cmax (oral, 40 mg/day, ABCB1 rs1128503 T>C, T/T (n 2), read-out: Cmax (SD)) was 8.35 ng/mL and the Tmax (oral, 40 mg/day, ABCB1 rs1128503 T>C, T/T (n 2), read-out: Tmax (SD)) was 3 h. The AUC(0-t) (oral, 40 mg/day, ABCB1 rs2032582 G>T, G/G (n 8), read-out: AUClast (SD)) was 34.6 ng·h/mL, the Cmax (oral, 40 mg/day, ABCB1 rs2032582 G>T, G/G (n 8), read-out: Cmax (SD)) was 4.84 ng/mL and the Tmax (oral, 40 mg/day, ABCB1 rs2032582 G>T, G/G (n 8), read-out: Tmax (SD)) was 12.9 h. For the same compound, the AUC(0-t) (oral, 40 mg/day, ABCB1 rs2032582 G>T, G/T (n 6), read-out: AUClast (SD)) was 46.4 ng·h/mL, the Cmax (oral, 40 mg/day, ABCB1 rs2032582 G>T, G/T (n 6), read-out: Cmax (SD)) was 5.24 ng/mL and the Tmax (oral, 40 mg/day, ABCB1 rs2032582 G>T, G/T (n 6), read-out: Tmax (SD)) was 9.5 h. The AUC(0-t) (oral, 40 mg/day, ABCB1 rs2032582 G>T, T/T (n 2), read-out: AUClast (SD)) was 60.9 ng·h/mL, the Cmax (oral, 40 mg/day, ABCB1 rs2032582 G>T, T/T (n 2), read-out: Cmax (SD)) was 8.35 ng/mL and the Tmax (oral, 40 mg/day, ABCB1 rs2032582 G>T, T/T (n 2), read-out: Tmax (SD)) was 3 h. It also gave an AUC(0-t) (oral, 40 mg/day, ABCB1 rs4148738 C>T, C/C (n 2), read-out: AUClast (SD)) of 60.9 ng·h/mL, a Cmax (oral, 40 mg/day, ABCB1 rs4148738 C>T, C/C (n 2), read-out: Cmax (SD)) of 8.35 ng/mL and a Tmax (oral, 40 mg/day, ABCB1 rs4148738 C>T, C/C (n 2), read-out: Tmax (SD)) of 3 h. It also gave an AUC(0-t) (oral, 40 mg/day, ABCB1 rs4148738 C>T, T/C (n 6), read-out: AUClast (SD)) of 46.4 ng·h/mL, a Cmax (oral, 40 mg/day, ABCB1 rs4148738 C>T, T/C (n 6), read-out: Cmax (SD)) of 5.24 ng/mL and a Tmax (oral, 40 mg/day, ABCB1 rs4148738 C>T, T/C (n 6), read-out: Tmax (SD)) of 9.5 h. The AUC(0-t) (oral, 40 mg/day, ABCB1 rs4148738 C>T, T/T (n 8), read-out: AUClast (SD)) was 34.6 ng·h/mL, the Cmax (oral, 40 mg/day, ABCB1 rs4148738 C>T, T/T (n 8), read-out: Cmax (SD)) was 4.84 ng/mL and the Tmax (oral, 40 mg/day, ABCB1 rs4148738 C>T, T/T (n 8), read-out: Tmax (SD)) was 12.9 h. It also gave an AUC(0-t) (oral, 40 mg, CYP2C8 rs10509681 T/C (n 3), read-out: AUClast (SD)) of 46.9 ng·h/mL, a Cmax (oral, 40 mg, CYP2C8 rs10509681 T/C (n 3), read-out: Cmax (SD)) of 7.06 ng/mL and a Tmax (oral, 40 mg, CYP2C8 rs10509681 T/C (n 3), read-out: Tmax (h, SD)) of 16.7 h. For the same compound, the AUC(0-t) (oral, 40 mg, CYP2C8 rs10509681 T/T (n 13), read-out: AUClast (SD)) was 41.2 ng·h/mL, the Cmax (oral, 40 mg, CYP2C8 rs10509681 T/T (n 13), read-out: Cmax (SD)) was 5.05 ng/mL and the Tmax (oral, 40 mg, CYP2C8 rs10509681 T/T (n 13), read-out: Tmax (h, SD)) was 8.92 h. For the same compound, the AUC(0-t) (oral, 40 mg, CYP2C8 rs11572080 C/C (n 13), read-out: AUClast (SD)) was 41.2 ng·h/mL, the Cmax (oral, 40 mg, CYP2C8 rs11572080 C/C (n 13), read-out: Cmax (SD)) was 5.05 ng/mL and the Tmax (oral, 40 mg, CYP2C8 rs11572080 C/C (n 13), read-out: Tmax (h, SD)) was 8.92 h. For the same compound, the AUC(0-t) (oral, 40 mg, CYP2C8 rs11572080 C/T (n 3), read-out: AUClast (SD)) was 46.9 ng·h/mL, the Cmax (oral, 40 mg, CYP2C8 rs11572080 C/T (n 3), read-out: Cmax (SD)) was 7.06 ng/mL and the Tmax (oral, 40 mg, CYP2C8 rs11572080 C/T (n 3), read-out: Tmax (h, SD)) was 16.7 h. For the same compound, the AUC(0-t) (oral, 40 mg, CYP2C9 *1/*1, NM (n = 8), mean ± SD, read-out: AUClast) was 54.5 ± 49.4 ng·h/mL, the Cmax (oral, 40 mg, CYP2C9 *1/*1, NM (n = 8), mean ± SD, read-out: Cmax) was 7.28 ± 8.71 ng/mL and the Tmax (oral, 40 mg, CYP2C9 *1/*1, NM (n = 8), mean ± SD, read-out: Tmax) was 8 ± 7.15 h. For the same compound, the AUC(0-t) (oral, 40 mg, CYP2C9 *2/*3, *3/*3, PM (n = 2), mean ± SD, read-out: AUClast) was 18.6 ± 22.5 ng·h/mL, the Cmax (oral, 40 mg, CYP2C9 *2/*3, *3/*3, PM (n = 2), mean ± SD, read-out: Cmax) was 3.11 ± 3.75 ng/mL and the Tmax (oral, 40 mg, CYP2C9 *2/*3, *3/*3, PM (n = 2), read-out: Tmax) was 24 h. The AUC(0-t) (oral, 40 mg, CYP2C19 *1/*1, NM (n = 6), mean ± SD, read-out: AUClast) was 33.1 ± 48.1 ng·h/mL, the Cmax (oral, 40 mg, CYP2C19 *1/*1, NM (n = 6), mean ± SD, read-out: Cmax) was 5.25 ± 8.82 ng/mL and the Tmax (oral, 40 mg, CYP2C19 *1/*1, NM (n = 6), mean ± SD, read-out: Tmax) was 15.5 ± 9.95 h.
